Like-named read-outs stand apart in the source and are kept apart here.
How the values were obtained:
[1] = system: anti-type II collagen IgG1 and IgG2a; experiment: Serum anti-collagen antibody levels in mice with established CIA (ELISA); type: in vivo, mouse; details: 10 days treatment
Protocol: (§1) ELISA plates (Nunc, Uxbridge, UK) were coated with 2 μg/ml of bovine CII dissolved overnight in Tris Buffer (0.05 M Tris, containing 0.2 M NaCl, pH 7.4) blocked with 2% bovine serum albumin (BSA) and then incubated with serial dilutions of test sera. A reference sample was included on each plate. Bound total IgG, IgG1 or IgG2a was detected by incubation with HRP-conjugated sheep anti-mouse IgG, IgG1 or IgG2a, followed by TMB substrate. Optical density was measured at 450 nm.

[2] = system: DBA/1 mice immunised with type II collagen in CFA; experiment: Development of collagen-induced arthritis, treatment from the day of immunisation (Example 4); type: in vivo, mouse
Protocol: Type II collagen was purified from bovine cartilage, as described [Williams, R. O. 2004, Methods Mol. Med. 98:207-216] and solubilized by stirring overnight at 4° C. in acetic acid (0.1M) or Tris buffer (0.05 M Tris, containing 0.2 M NaCl, pH 7.4). Tranilast was synthesised by Angiogen Pharmaceuticals Pty. Ltd. For in vivo studies Tranilast was dissolved at a maximum concentration of 10 mg/ml in 1% sodium bicarbonate by heating for 1 h at 70° C. Upon cooling, an emulsion was formed. For in vitro studies Tranilast was dissolved in dimethyl sulphoxide (DMSO). 3-Hydroxy-anthranilic acid (3-HAA) was purchased from Sigma (Poole, UK) and dissolved in PBS.
Male DBA/1 mice (8-12 weeks old) were immunized intradermally at the base of the tail with bovine type II collagen (200 μg) emulsified in complete Freund's adjuvant (CFA; Difco, West Moseley, UK). Arthritis was monitored clinically using the following scoring system: 0=normal, 1=slight swelling and/or erythema, and 2=pronounced oedematous swelling. Each limb was graded, giving a maximum score of 8 per mouse. In addition, paw-swelling was measured using calipers.
as §1
In order to assess its anti-arthritic potential, Tranilast was injected into DBA/1 mice (200 mg/kg/day) from the day of immunisation with type II collagen in CFA. By day 28, 5 of 7 (71%) vehicle treated mice had developed arthritis of moderate severity (clinical score 2.8±0.6), whilst 1 of 7 (14%) Tranilast-treated mice had developed mild arthritis (clinical score 1).

IL-10 = experiment: Serum IL-10 in mice with established CIA (ELISA); type: in vivo, mouse; details: 10 days treatment (FIG. 7)
Protocol: Mice with established CIA were treated with 3,4-DAA or vehicle (n=7) for 10 days (see FIG. 6), then bled. IL-10 in the sera was measured by ELISA.
Inguinal lymph nodes were excised from Tranilast-treated and control mice. Alternatively, inguinal lymph nodes were removed from untreated arthritic mice (day 1-5 of arthritis) and Tranilast was added in vitro. In both cases, LNC were cultured in RPMI 1640 containing FCS (10% v/v), 2-mercaptoethanol (20 μM), L-glutamine (1% w/v), penicillin (100 U/ml) and streptomycin (100 μg/ml) in the presence or absence of type II collagen (50 μg/ml). Secreted cytokines (IFN-γ, IL-5, TNFα and IL-10) were measured after 72 h. by ELISA. In brief, 96 well ELISA plates were coated with the respective capture antibody, blocked with bovine serum albumin (2% w/v), and then incubated with LNC culture supernatants (neat) overnight at 4° C. After washing, bound cytokines were detected using biotinylated detect antibodies. A standard curve was generated using known concentrations of the appropriate recombinant cytokine and the concentrations of cytokines present in culture supernatants were estimated by reference to the standard curve.

[3] = system: B cells activated with LPS, anti-CD40 or anti-IgM antibody; experiment: B cell proliferation, 3[H]thymidine incorporation (Example 3); type: cell-based, mouse; details: for anti-IgM induced proliferation: 12.5-100 μg/ml; for inhibition at 100 µg/mL: Mus musculus, B-cell, 100 μg/ml
Protocol: FIG. 4 is a graphical representation depicting that B cell proliferation induced by LPS and anti-CD40 is inhibited by Tranilast. B-cells were activated in vitro with LPS or anti-CD40 antibody and 6.25-100 μg/ml tranilast. Proliferation was assessed using ^3[H]thymidine incorporation. LPS and anti-CD40 induced a 92- and 258-fold increase in thymidine incorporation respectively.
FIG. 5 is a graphical representation depicting that B cell proliferation induced by LPS and anti-CD40 and anti-IgM is inhibited by tranilast. B-cells were activated in vitro with LPS or anti-CD40 antibody or anti-IgM antibody, and 12.5-100 μg/ml tranilast. Proliferation was assessed using ^3[H]thymidine incorporation. LPS, anti-CD40 and anti-IgM induced 91- and 81- and 60-fold increases in thymidine incorporation respectively.
B cells were prepared from mouse spleen using rat anti-mouse IgM microbeads and the MACS system.
3 spleens were removed from male DBA/1 mice aged 8-12 weeks. A single cell suspension was prepared by cell-sieve.
Cells were cultured at 1×10^6 cells/ml in 200 μl complete RPMI with glutamine (10% FCS, 1% Pen/Strep, 50 μM 2-Mercaptoethanol, 1 mM Na-Pyruvate) in a 96-well plate for 48 h in the presence of LPS (20 μg/ml), azide-free anti-CD40 monoclonal antibody (10 μg/ml), or azide free F(ab′)2 fragment of anti-IgM monoclonal antibody (20 μg/ml) and 100-6.25 μg/ml tranilast, or vehicle (DMSO).
1 μCi ^3[H]thymidine was added to each well and incubated overnight. Cells were harvested onto a pre-wet filter mat using a Skaton cell harvester. The filter mat was dried in a microwave for 2 minutes at 750 W. The dry filter mat was sealed in a bag using a plate sealer, and the corner cut. 10 ml scintillation fluid was placed in the bag, and spread evenly over the filter mat. The bag was re-sealed and read in a Wallac 1205 plate reader.

`COc1ccc(/C=C/C(=O)Nc2ccccc2C(=O)O)cc1OC` [Tranilast, 2-[[3-(3,4-dimethoxyphenyl)-1-oxo-2-propenyl]amino]benzoic acid] was tested, and the “levels of anti-type II collagen IgG1 and IgG2a in sera” value [1] was “no differences were observed”, the “anti-collagen IgG1 or IgG2a levels in sera” value ([2]; 200 mg/kg/day from the day of immunisation) was “no change” and the “mice that had developed arthritis by day 28” value ([2]; 200 mg/kg/day from the day of immunisation, 1 of 7 mice) was 14%. For the same compound, the clinical score ([2]; day 28, 200 mg/kg/day from the day of immunisation) was 1, the “circulating IL-10 levels” value (IL-10) was “dose-dependent increase” and the “circulating IL-10 levels” value (IL-10; listed as 3,4-DAA) was “increased IL-10 levels”. The “B cell proliferation induced by LPS or anti-CD40” value ([3]; 37.5 μg/ml, FIG. 5) was “significantly inhibited”, the “B cell proliferation induced by LPS or anti-CD40” value ([3]; 100 μg/ml and 50 μg/ml, FIG. 4) was “significantly inhibited” and the anti-IgM induced proliferation ([3]; FIG. 5) was “effective at all doses assessed”. For the same compound, the anti-IgM induced proliferation ([3]; FIG. 5, listed as tranilast) was “all doses tested inhibited”, the inhibition at 100 µg/mL ([3]; FIG. 4, read-out: inhibition of B cell proliferation induced by LPS) was 99% and the inhibition at 100 µg/mL ([3]; FIG. 4, read-out: inhibition of B cell proliferation induced by anti-CD40) was 97%. It also gave an inhibition at 100 µg/mL ([3]; FIG. 5, read-out: maximum inhibition of B cell proliferation (LPS)) of 96%, an inhibition at 100 µg/mL ([3]; FIG. 5, read-out: maximum inhibition of B cell proliferation (anti-CD40)) of 91% and an inhibition at 100 µg/mL ([3]; FIG. 5, read-out: maximum inhibition of B cell proliferation (anti-IgM)) of 98%.

Source: patent US20100041756A1, “METHOD OF MODULATING B CELL FUNCTIONING” (priority 2004, published 2010)
